These results are taken from US20230365592A1 (Agios Pharmaceuticals, Inc., priority 2022, published 2023).

In general, AC50 refers to the concentration at which the activity in the assay is half-maximal.

In the assay the target is T1, human PAH with the R408W mutation (Homo sapiens, UniProt P00439, R408W).
T1 construct: expressed in transfected cells
T1 sequence (P00439 1-452 R408W): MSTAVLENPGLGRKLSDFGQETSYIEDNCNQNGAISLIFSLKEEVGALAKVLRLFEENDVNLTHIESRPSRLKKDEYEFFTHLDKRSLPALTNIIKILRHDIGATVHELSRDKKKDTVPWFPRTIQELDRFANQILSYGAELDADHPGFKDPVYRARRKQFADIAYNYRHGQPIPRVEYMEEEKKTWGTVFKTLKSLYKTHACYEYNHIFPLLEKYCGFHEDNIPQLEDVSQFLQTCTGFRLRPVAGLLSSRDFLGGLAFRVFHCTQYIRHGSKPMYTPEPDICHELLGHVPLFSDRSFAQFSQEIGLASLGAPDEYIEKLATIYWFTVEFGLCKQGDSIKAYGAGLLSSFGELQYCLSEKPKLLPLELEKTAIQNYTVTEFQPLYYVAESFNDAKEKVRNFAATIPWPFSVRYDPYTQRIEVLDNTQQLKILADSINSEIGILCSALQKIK
As to the kind of experiment: Cell Based Phenylalanine Flux Assay.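 Note: after compound treatment, cells received sepiapterin plus isotope-labelled Phenylalanine for 4 hours, then labelled Tyrosine in the medium was quantified, 10-point 2-fold dilution series run in duplicate.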 Conditions: A375 cells expressing human PAH R408W; 24 hrs compound incubation; 13C-Tyrosine by LC-MS; average where tested multiple times; read-out: AC50.
In the case of `CC(C)c1nnc(N2CCc3[nH]cnc3[C@H]2c2cc3ccccn3n2)o1` [Example 2301, (S)-2-isopropyl-5-(4-(pyrazolo[1,5-a]pyridin-2-yl)-1,4,6,7-tetrahydro-5H-imidazo[4,5-c]pyridin-5-yl)-1,3,4-oxadiazole], the AC50 is 500 to 1000 nM. As for `Cc1cccn2nc([C@@H]3c4nc[nH]c4CCN3c3nnc(C(C)C)o3)cc12` [Example 2303, (S)-2-isopropyl-5-(4-(4-methylpyrazolo[1,5-a]pyridin-2-yl)-1,4,6,7-tetrahydro-5H-imidazo[4,5-c]pyridin-5-yl)-1,3,4-oxadiazole], the AC50 was < 500 nM.

On to `CC(C)c1nnc(N2CCc3[nH]cnc3[C@H]2c2cc3c(C(F)(F)F)cccn3n2)o1` [Example 2305, (S)-2-isopropyl-5-(4-(4-(trifluoromethyl)pyrazolo[1,5-a]pyridin-2-yl)-1,4,6,7-tetrahydro-5H-imidazo[4,5-c]pyridin-5-yl)-1,3,4-oxadiazole], for which the AC50 lay in the range of 500 to 1000 nM. The same measure for `Cc1cccnc1-c1nnc(N2CCc3[nH]cnc3[C@@H]2c2cc3cccc(C)n3n2)o1` [Example 2308, (R)-2-(4-(7-methylpyrazolo[1,5-a]pyridin-2-yl)-1,4,6,7-tetrahydro-5H-imidazo[4,5-c]pyridin-5-yl)-5-(3-methylpyridin-2-yl)-1,3,4-oxadiazole]: > 5000 nM. Regarding `Cc1cccnc1-c1nnc(N2CCc3[nH]cnc3[C@H]2c2cc3cccc(C)n3n2)o1` [Example 2309, (S)-2-(4-(7-methylpyrazolo[1,5-a]pyridin-2-yl)-1,4,6,7-tetrahydro-5H-imidazo[4,5-c]pyridin-5-yl)-5-(3-methylpyridin-2-yl)-1,3,4-oxadiazole], the AC50 is 500 to 1000 nM. The same measure for `Cc1cccn2nc([C@@H]3c4nc[nH]c4CCN3c3ccccc3)cc12` [Example 2311, (S)-4-(4-methylpyrazolo[1,5-a]pyridin-2-yl)-5-phenyl-4,5,6,7-tetrahydro-1H-imidazo[4,5-c]pyridine]: < 500 nM. Under `Fc1cccn2nc([C@H]3c4nc[nH]c4CCN3c3ccccc3)cc12` [Example 2312, (R)-4-(4-fluoropyrazolo[1,5-a]pyridin-2-yl)-5-phenyl-4,5,6,7-tetrahydro-1H-imidazo[4,5-c]pyridine] stands 1000 to 5000 nM.

On to `Fc1cccn2nc([C@@H]3c4nc[nH]c4CCN3c3ccccc3)cc12` [Example 2313, (S)-4-(4-fluoropyrazolo[1,5-a]pyridin-2-yl)-5-phenyl-4,5,6,7-tetrahydro-1H-imidazo[4,5-c]pyridine], for which the AC50 is < 500 nM. As for `FC(F)(F)Oc1cccn2nc([C@@H]3c4nc[nH]c4CCN3c3nnc(C4CC4)o3)cc12` [Example 2314, (S)-2-cyclopropyl-5-(4-(4-(trifluoromethoxy)pyrazolo[1,5-a]pyridin-2-yl)-1,4,6,7-tetrahydro-5H-imidazo[4,5-c]pyridin-5-yl)-1,3,4-oxadiazole], the AC50 is < 500 nM. Consider `FC(F)(F)Oc1cccn2nc([C@@H]3c4nc[nH]c4CCN3c3ncc(C(F)(F)F)cn3)cc12` [Example 2316, (S)-4-(4-(trifluoromethoxy)pyrazolo[1,5-a]pyridin-2-yl)-5-(5-(trifluoromethyl)pyrimidin-2-yl)-4,5,6,7-tetrahydro-1H-imidazo[4,5-c]pyridine], for which the AC50 was < 500 nM. Under `FC(F)Oc1cccn2nc([C@H]3c4nc[nH]c4CCN3c3cnccn3)cc12` [Example 2318, (R)-4-(4-(difluoromethoxy)pyrazolo[1,5-a]pyridin-2-yl)-5-(pyrazin-2-yl)-4,5,6,7-tetrahydro-1H-imidazo[4,5-c]pyridine] stands > 5000 nM; under `CC(C)c1nnc(N2CCc3[nH]cnc3[C@@H]2c2cc3c(F)cccn3n2)o1` [Example 2322, (R)-2-(4-(4-fluoropyrazolo[1,5-a]pyridin-2-yl)-1,4,6,7-tetrahydro-5H-imidazo[4,5-c]pyridin-5-yl)-5-isopropyl-1,3,4-oxadiazole], > 5000 nM; under `CC(C)c1nnc(N2CCc3[nH]cnc3[C@@H]2c2cc3c(Cl)cccn3n2)o1` [Example 2324, (R)-2-(4-(4-chloropyrazolo[1,5-a]pyridin-2-yl)-1,4,6,7-tetrahydro-5H-imidazo[4,5-c]pyridin-5-yl)-5-isopropyl-1,3,4-oxadiazole], > 5000 nM. With `CC(C)c1nnc(N2CCc3[nH]cnc3[C@H]2c2cc3c(Cl)cccn3n2)o1` [Example 2325, (S)-2-(4-(4-chloropyrazolo[1,5-a]pyridin-2-yl)-1,4,6,7-tetrahydro-5H-imidazo[4,5-c]pyridin-5-yl)-5-isopropyl-1,3,4-oxadiazole], the AC50 was < 500 nM. Regarding `CC(F)(F)c1nnc(N2CCc3[nH]cnc3[C@H]2c2cc3cccc(Cl)n3n2)o1` [Example 2327, (S)-2-(4-(7-chloropyrazolo[1,5-a]pyridin-2-yl)-1,4,6,7-tetrahydro-5H-imidazo[4,5-c]pyridin-5-yl)-5-(1,1-difluoroethyl)-1,3,4-oxadiazole], the AC50 lay within 1000 to 5000 nM.

As to `Cc1cccc2cc([C@@H]3c4nc[nH]c4CCN3c3nnc(C(C)(F)F)o3)nn12` [Example 2329, (S)-2-(1,1-difluoroethyl)-5-(4-(7-methylpyrazolo[1,5-a]pyridin-2-yl)-1,4,6,7-tetrahydro-5H-imidazo[4,5-c]pyridin-5-yl)-1,3,4-oxadiazole], the half-maximal activity concentration (AC50) fell in the range of 1000 to 5000 nM. As to `Cc1ncccc1-c1nnc(N2CCc3[nH]cnc3[C@@H]2c2cc3cccc(Cl)n3n2)o1` [Example 2331, (R)-2-(4-(7-chloropyrazolo[1,5-a]pyridin-2-yl)-1,4,6,7-tetrahydro-5H-imidazo[4,5-c]pyridin-5-yl)-5-(2-methylpyridin-3-yl)-1,3,4-oxadiazole], the AC50 was > 5000 nM. Under `Cc1ncccc1-c1nnc(N2CCc3[nH]cnc3[C@H]2c2cc3cccc(C)n3n2)o1` [Example 2332, (S)-2-(4-(7-methylpyrazolo[1,5-a]pyridin-2-yl)-1,4,6,7-tetrahydro-5H-imidazo[4,5-c]pyridin-5-yl)-5-(2-methylpyridin-3-yl)-1,3,4-oxadiazole] stands 500 to 1000 nM; under `Cc1ncccc1-c1nnc(N2CCc3[nH]cnc3[C@@H]2c2cc3cccc(C)n3n2)o1` [Example 2333, (R)-2-(4-(7-methylpyrazolo[1,5-a]pyridin-2-yl)-1,4,6,7-tetrahydro-5H-imidazo[4,5-c]pyridin-5-yl)-5-(2-methylpyridin-3-yl)-1,3,4-oxadiazole], > 5000 nM; under `CC(C)c1cccn2nc([C@@H]3c4nc[nH]c4CCN3c3nnc(-c4cccnc4F)o3)cc12` [Example 2335, (S)-2-(2-fluoropyridin-3-yl)-5-(4-(4-isopropylpyrazolo[1,5-a]pyridin-2-yl)-1,4,6,7-tetrahydro-5H-imidazo[4,5-c]pyridin-5-yl)-1,3,4-oxadiazole], 500 to 1000 nM.

For the compound `Cc1cccnc1-c1nnc(N2CCc3[nH]cnc3[C@H]2c2cc3cccc(C(F)(F)F)n3n2)o1` [Example 2336, (S)-2-(3-methylpyridin-2-yl)-5-(4-(7-(trifluoromethyl)pyrazolo[1,5-a]pyridin-2-yl)-1,4,6,7-tetrahydro-5H-imidazo[4,5-c]pyridin-5-yl)-1,3,4-oxadiazole], the AC50 lay within 500 to 1000 nM. Under `Fc1cccnc1-c1nnc(N2CCc3[nH]cnc3[C@H]2c2cc3ccccn3n2)o1` [Example 2338, (S)-2-(3-fluoropyridin-2-yl)-5-(4-(pyrazolo[1,5-a]pyridin-2-yl)-1,4,6,7-tetrahydro-5H-imidazo[4,5-c]pyridin-5-yl)-1,3,4-oxadiazole] stands 500 to 1000 nM; under `Fc1cccnc1-c1nnc(N2CCc3[nH]cnc3[C@@H]2c2cc3ccccn3n2)o1` [Example 2339, (R)-2-(3-fluoropyridin-2-yl)-5-(4-(pyrazolo[1,5-a]pyridin-2-yl)-1,4,6,7-tetrahydro-5H-imidazo[4,5-c]pyridin-5-yl)-1,3,4-oxadiazole], > 5000 nM; under `Cc1cccn2nc([C@H]3c4nc[nH]c4CCN3c3nnc(-c4ncccc4F)o3)cc12` [Example 2340, (R)-2-(3-fluoropyridin-2-yl)-5-(4-(4-methylpyrazolo[1,5-a]pyridin-2-yl)-1,4,6,7-tetrahydro-5H-imidazo[4,5-c]pyridin-5-yl)-1,3,4-oxadiazole], > 5000 nM. For the compound `Cc1cccn2nc([C@@H]3c4nc[nH]c4CCN3c3nnc(-c4ncccc4F)o3)cc12` [Example 2341, (S)-2-(3-fluoropyridin-2-yl)-5-(4-(4-methylpyrazolo[1,5-a]pyridin-2-yl)-1,4,6,7-tetrahydro-5H-imidazo[4,5-c]pyridin-5-yl)-1,3,4-oxadiazole], the AC50 was 500 to 1000 nM.

Consider `Cc1cccc(-c2nnc(N3CCc4[nH]cnc4[C@H]3c3cc4c(C)cccn4n3)o2)n1` [Example 2345, (S)-2-(4-(4-methylpyrazolo[1,5-a]pyridin-2-yl)-1,4,6,7-tetrahydro-5H-imidazo[4,5-c]pyridin-5-yl)-5-(6-methylpyridin-2-yl)-1,3,4-oxadiazole], for which the AC50 is 500 to 1000 nM. Under `Cc1cccc(-c2nnc(N3CCc4[nH]cnc4[C@H]3c3cc4c(C(F)F)cccn4n3)o2)n1` [Example 2347, (S)-2-(4-(4-(difluoromethyl)pyrazolo[1,5-a]pyridin-2-yl)-1,4,6,7-tetrahydro-5H-imidazo[4,5-c]pyridin-5-yl)-5-(6-methylpyridin-2-yl)-1,3,4-oxadiazole] stands 500 to 1000 nM.
